Results from patent US20030139352A1, “Inhibitors of ABC drug transporters in cancer cells” (priority 2001, published 2003).
Read-outs that look alike come from different tables or passages of the source.

Tests used:
human PGP = human PGP (Homo sapiens, UniProt P08183); test: Inhibition of human PGP-mediated [3H]-digoxin transport in 15B-J (LLC-PK1 expressing human PGP) monolayers; details: for inhibition of PGP-mediated digoxin transport (in words): 5 μM [3H]-digoxin, 15B-J monolayers; for Activity 2: high capacity, low affinity binding site; for Activity 1: low capacity, high affinity binding site
Sequence of human PGP (P08183 whole entry): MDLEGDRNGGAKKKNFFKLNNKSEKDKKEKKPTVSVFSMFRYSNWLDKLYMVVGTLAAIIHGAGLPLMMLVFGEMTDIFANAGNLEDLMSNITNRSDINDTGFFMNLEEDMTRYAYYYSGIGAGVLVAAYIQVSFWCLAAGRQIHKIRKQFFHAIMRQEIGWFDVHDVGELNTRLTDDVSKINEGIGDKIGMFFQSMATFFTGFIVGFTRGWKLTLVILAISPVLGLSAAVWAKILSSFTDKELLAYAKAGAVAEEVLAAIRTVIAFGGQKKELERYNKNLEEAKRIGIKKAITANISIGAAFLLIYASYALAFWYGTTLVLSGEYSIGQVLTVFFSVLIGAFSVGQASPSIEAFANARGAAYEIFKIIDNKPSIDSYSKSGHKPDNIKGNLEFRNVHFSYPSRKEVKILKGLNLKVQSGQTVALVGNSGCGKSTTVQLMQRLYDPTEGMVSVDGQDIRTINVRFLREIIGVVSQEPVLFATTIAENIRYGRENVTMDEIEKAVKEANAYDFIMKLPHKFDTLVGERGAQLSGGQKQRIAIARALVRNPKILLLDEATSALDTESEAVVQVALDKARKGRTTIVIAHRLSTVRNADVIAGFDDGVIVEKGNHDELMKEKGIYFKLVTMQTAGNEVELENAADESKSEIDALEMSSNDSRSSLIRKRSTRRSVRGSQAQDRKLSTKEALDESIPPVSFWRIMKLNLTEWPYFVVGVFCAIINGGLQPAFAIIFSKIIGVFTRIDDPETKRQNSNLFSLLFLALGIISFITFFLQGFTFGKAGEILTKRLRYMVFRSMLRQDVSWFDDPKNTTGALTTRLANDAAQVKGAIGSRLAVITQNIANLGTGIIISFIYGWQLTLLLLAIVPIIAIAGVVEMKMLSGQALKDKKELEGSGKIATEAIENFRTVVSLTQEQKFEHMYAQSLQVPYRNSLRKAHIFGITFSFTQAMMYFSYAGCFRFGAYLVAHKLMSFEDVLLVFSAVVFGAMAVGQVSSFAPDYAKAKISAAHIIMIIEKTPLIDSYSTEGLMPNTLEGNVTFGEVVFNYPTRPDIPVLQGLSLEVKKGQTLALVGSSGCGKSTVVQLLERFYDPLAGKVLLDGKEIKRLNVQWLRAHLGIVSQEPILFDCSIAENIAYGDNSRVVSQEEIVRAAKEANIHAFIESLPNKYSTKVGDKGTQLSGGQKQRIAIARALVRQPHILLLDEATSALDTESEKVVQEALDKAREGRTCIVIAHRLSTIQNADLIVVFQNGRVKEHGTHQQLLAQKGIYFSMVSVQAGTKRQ

[1] = molecular target: human PGP (P-glycoprotein) (Homo sapiens, UniProt P08183); test: as above; details: human; for inhibition at 90 min, 0.0001 μM: 0.0001 μM test substance; for inhibition at 90 min, 0.0003 μM: 0.0003 μM test substance; for inhibition at 90 min, 0.001 μM: 0.001 μM test substance; for inhibition at 90 min, 0.003 μM: 0.003 μM test substance; for inhibition at 90 min, 0.01 μM: 0.01 μM test substance; for inhibition at 90 min, 0.03 μM: 0.03 μM test substance; for inhibition at 90 min, 0.1 μM: 0.1 μM test substance; for inhibition at 90 min, 0.3 μM: 0.3 μM test substance; for inhibition at 90 min, 1 μM: 1.0 μM test substance; for inhibition at 90 min, 3 μM: 3.0 μM test substance; for inhibition at 90 min, 10 μM: 10 μM test substance; for inhibition at 90 min, 30 μM: 30 μM test substance; for inhibition at 90 min, 100 μM: 100 μM test substance
Sequence of human PGP (P-glycoprotein) (P08183 whole entry): as above

[2] = molecular target: human PGP membranes (PGP-associated ATPase) (Homo sapiens, UniProt P08183); details: for ATPase Activity: orthovanadate-sensitive; for effect on PGP-associated ATPase activity (in words): semi-quantitative assay
Sequence of human PGP membranes (PGP-associated ATPase) (P08183 whole entry): as above
Method: The DMSO concentration (1.0%) was constant for all conditions within the experiment.
The test substances were incubated in the PGP membranes and supplemented with MgATP, with and without sodium orthovanadate present. Orthovanadate inhibits PGP by trapping MgADP in the nucleotide binding site. Thus, the ATPase activity measured in the presence of orthovanadate represents non-PGP ATPase activity and was subtracted from the activity generated without orthovanadate to yield ATPase activity.
(§1) ATPase assays were conducted in 96-well microtiter plates. A 0.06 mL reaction mixture containing 40 μg PGP membranes, test substance, and 4 mM MgATP, in buffer containing 50 mM Tris-MES, 2 mM EGTA, 50 mM KCl, 2 mM dithiothreitol, and 5 mM sodium azide, plus organic solvent was incubated at 37° C. for 20 minutes. […] Identical reaction mixtures containing 100 μM sodium orthovanadate were assayed in parallel. The reactions were stopped by the addition of 30 μl of 10% SDS+Antifoam A. The incubations were followed with addition of 200 μl of 35 mM Ammonium Molybdate in 15 mM Zinc Acetate: 10% Ascorbic Acid (1:4) and incubated for an additional 20 minutes at 37° C. Additionally, 0.06 mL aliquots of potassium phosphate standards prepared in the buffer described above, were incubated in the plates containing the test and control substances, with SDS and detection reagent added. The liberation of inorganic phosphate was detected by its absorbance at 800 nm and quantitated by comparing the absorbance to a phosphate standard curve. The concentration dependence of the PGP was analyzed for evidence of saturation of PGP-associated ATPase activity, and apparent kinetic parameters were calculated by non-linear regression.
as §1, with “plates.” for “plates. A 0.06 mL reaction mixture containing 40 μg PGP membranes, test substance, and 4 mM MgATP, in buffer containing 50 mM Tris-MES, 2 mM EGTA, 50 mM KCl, 2 mM dithiothreitol, and 5 mM sodium azide, plus organic solvent was incubated at 37° C. for 20 minutes.”, “activity.” for “activity, and apparent kinetic parameters were calculated by non-linear regression.”
as §1, with “plates.” for “plates. A 0.06 mL reaction mixture containing 40 μg PGP membranes, test substance, and 4 mM MgATP, in buffer containing 50 mM Tris-MES, 2 mM EGTA, 50 mM KCl, 2 mM dithiothreitol, and 5 mM sodium azide, plus organic solvent was incubated at 37° C. for 20 minutes.”

[3] = system: CLA (control) Monolayer, LLC-PK1 cells; details: 10 μM in donor
[4] = pH 7.2, % Inhibition of Digoxin Transport, 5 μM [3H]-digoxin, 90 min
[5] = pH 7.2, Ketoconazole Normalized % Inhibition of Digoxin Transport, normalized to 25 μM ketoconazole

Row | Compound | inhibition of PGP-mediated digoxin transport (in words) (human PGP) | Activity 2 (human PGP) [µM] | Activity 1 (human PGP) [nM] | inhibition at 90 min, 0.0001 μM [1, 5] [%] | inhibition at 90 min, 0.0003 μM [1, 5] [%] | inhibition at 90 min, 0.001 μM [1, 5] [%] | inhibition at 90 min, 0.01 μM [1, 5] [%] | inhibition at 90 min, 0.03 μM [1, 5] [%] | inhibition at 90 min, 1 μM [1, 5] [%] | inhibition at 90 min, 3 μM [1, 5] [%] | inhibition at 90 min, 10 μM [1, 5] [%] | inhibition at 90 min, 30 μM [1, 5] [%] | inhibition at 90 min, 100 μM [1, 5] [%] | ATPase Activity ([2]; 0.01 μM test substance) [nmol/mg/min] | ATPase Activity ([2]; 0.03 μM test substance) [nmol/mg/min] | ATPase Activity ([2]; 0.1 μM test substance) [nmol/mg/min] | ATPase Activity ([2]; 0.3 μM test substance) [nmol/mg/min] | ATPase Activity ([2]; 1.0 μM test substance) [nmol/mg/min] | ATPase Activity ([2]; 3.0 μM test substance) [nmol/mg/min] | ATPase Activity ([2]; 10 μM test substance) [nmol/mg/min] | also measured
1 | C=C1CC[C@@]2(O)[C@H]3Cc4ccc(O)c5c4[C@@]2(CCN3CC2CC2)[C@H]1O5 [Nalmefene, nalmefene] | increasingly inhibited in response to increasing concentration | 100 | 0.3 | 7.5 | 10 | 4 | 7.4 | -10 | -3.2 | 14 | 19 | 51 | 61 | 1.3 | 1.2 | 1.1 | 1.9 | -1.6 | 0.2 | -0.5 | inhibition at 90 min, 0.0001 μM [1, 4]: 5.2%; inhibition at 90 min, 0.0003 μM [1, 4]: 7.2%; inhibition at 90 min, 0.001 μM [1, 4]: 2.8%; inhibition at 90 min, 0.003 μM [1, 4]: 5.1%; inhibition at 90 min, 0.01 μM [1, 4]: 3.9%; inhibition at 90 min, 0.03 μM [1, 4]: -7.2%; inhibition at 90 min, 0.1 μM [1, 4]: -0.3%; inhibition at 90 min, 0.3 μM [1, 4]: -5.6%; inhibition at 90 min, 1 μM [1, 4]: -2.6%; inhibition at 90 min, 3 μM [1, 4]: 10%; inhibition at 90 min, 10 μM [1, 4]: 13%; inhibition at 90 min, 30 μM [1, 4]: 35%; inhibition at 90 min, 100 μM [1, 4]: 42%; inhibition at 90 min, 0.003 μM [1, 5]: 7.4%; inhibition at 90 min, 0.3 μM [1, 5]: -10%; ATPase Activity ([2]; 0.003 μM test substance): 2.4 nmol/mg/min; ATPase Activity ([2]; 30 μM test substance): 2.3 nmol/mg/min; ATPase Activity ([2]; 100 μM test substance): 3.3 nmol/mg/min; effect on PGP-associated ATPase activity (in words) [2]: not to limit the ATPase activity
2 | Cc1ccc(NC(=O)c2ccc(CN3CCNCC3)cc2)cc1Nc1nccc(-c2cccnc2)n1 [Gleevec metabolite] | – | – | – | – | – | – | – | – | – | – | – | – | – | – | – | – | – | – | – | – | pmoles in Receiver ([3]; A→B, 15 min): 8.4 pmol; pmoles in Receiver ([3]; A→B, 30 min): 2.76 pmol; pmoles in Receiver ([3]; A→B, 60 min): 1.6 pmol; pmoles in Receiver ([3]; A→B, 90 min): 2.0 pmol; pmoles in Receiver ([3]; A→B, 120 min): 1.7 pmol; pmoles in Receiver ([3]; B→A, 15 min): 1.0 pmol; pmoles in Receiver ([3]; B→A, 30 min): 0.86 pmol; pmoles in Receiver ([3]; B→A, 60 min): 0.7 pmol; pmoles in Receiver ([3]; B→A, 90 min): 0.9 pmol; pmoles in Receiver ([3]; B→A, 120 min): 1.9 pmol
3 | C=CCN1CC[C@]23c4c5ccc(O)c4O[C@H]2C(=O)CC[C@@]3(O)[C@H]1C5 [Naloxone, naloxone] | the inhibition was not concentration-dependent | 30 | 1.0 | 6.2 | 8.4 | 10 | -4.5 | 5.7 | 7.8 | -11 | 0.4 | 41 | 37 | -0.8 | 0.7 | 3.6 | -0.6 | 0.4 | 1.7 | 2 | inhibition at 90 min, 0.1 μM [1, 5]: -2.7%; ATPase Activity ([2]; 0.001 μM test substance): -3.8 nmol/mg/min; ATPase Activity ([2]; 30 μM test substance): 1.9 nmol/mg/min; ATPase Activity ([2]; 100 μM test substance): 1.8 nmol/mg/min; effect on PGP-associated ATPase activity (in words) [2]: not to limit the ATPase activity
